According to article PMC4122355, “Inhibitor of the Tyrosine Phosphatase STEP Reverses Cognitive Deficits in a Mouse Model of Alzheimer's Disease” (PLoS Biology, 2014):

Columns and labels:
Aβ and phospho-tau = Aβ and phospho-tau levels in 12-mo-old 3xTg-AD mice; format: in vivo, mouse; settings: 10 mg/kg i.p.
Experimental: Time spent with either a novel or familiar object was recorded using ANY-maze software. Square-root transformation was used to meet the assumptions of normality and equal variance of the raw data. All histograms are presented as means ± s.e.m. Student's t test was applied to determine significance differences (*p<0.05; WT-Veh, n = 10; WT TC, n = 11; AD-Veh, n = 22; AD-TC, n = 19). […] CTFs and Aβ are indicated by arrowheads. Representative 7PA2-CM (Aβ-enriched conditioned medium) immunoprecipitation is shown on right panel. Data are presented as means ± s.e.m. […] Data are presented as means ± s.e.m. […] (TIF) Click here for additional data file.

PTP-SL = PTP-SL (Homo sapiens, UniProt Q15256); experiment: biochemical
Experimental: Full-length HePTP and PTP-SL proteins were purchased from Abnova (Taipei, Taiwan). All proteins were dialyzed in 1,000-fold volume of buffer, which was repeated three times. […] After 10 min preincubation of enzyme and inhibitor at 27°C, 500 µM of pNPP was added and incubated for 30 min. Absorbance was taken at 405 nm using a Biotek plate reader.

[1] = tested on: GluN2B (Y1472), Pyk2 (Y402), ERK1/2 (Y204/187) in cortex; experiment: Tyr phosphorylation of STEP substrates in cortex of WT mice after i.p. injection; format: in vivo, mouse; settings: C57BL/6 mice, 10 mg/kg i.p., 3 h postinjection, relative to vehicle
Experimental: Wild-type, male C57BL/6 mice (3–6 mo) were used for all studies. […] Cortical tissues were dissected out 3 h postinjection and processed for subcellular fractionation. […] Homogenates were centrifuged at 800 × g to remove nuclei and large debris (P1). Synaptosomal fractions (P2) were prepared from S1 by centrifugation at 9,200 × g for 15 min. The P2 pellet was washed twice and was resuspended in TEVP buffer. […] Samples were prepared and resolved by SDS-PAGE, transferred to nitrocellulose membrane, and incubated with phospho-specific antibodies (anti-pY^204/187 ERK1/2, anti-pY^402 Pyk2, anti-pY^1472 GluN2B) or total protein antibodies (anti-ERK2, anti-Pyk2, and anti-NR2B) overnight at 4°C. Immunoreactivity was visualized using a Chemiluminescent substrate kit (Pierce Biotechnology, Rockford, IL) and detected using a G:BOX with the image program GeneSnap (Syngene, Cambridge, UK). All densitometric quantifications were performed using the Genetools program.

[2] = tested on: ERK1/2 (Y204/187) and Pyk2 (Y402); experiment: Tyr phosphorylation of ERK1/2 and Pyk2 in different organs of WT and STEP KO mice; format: in vivo, mouse
STEP [3] = biological target: T1, STEP (Mus musculus, UniProt P54830); experiment: Recovery of STEP activity by reducing agents; format: biochemical; settings: after 1 h, DMSO control = 100%
T1 sequence (P54830 1-541): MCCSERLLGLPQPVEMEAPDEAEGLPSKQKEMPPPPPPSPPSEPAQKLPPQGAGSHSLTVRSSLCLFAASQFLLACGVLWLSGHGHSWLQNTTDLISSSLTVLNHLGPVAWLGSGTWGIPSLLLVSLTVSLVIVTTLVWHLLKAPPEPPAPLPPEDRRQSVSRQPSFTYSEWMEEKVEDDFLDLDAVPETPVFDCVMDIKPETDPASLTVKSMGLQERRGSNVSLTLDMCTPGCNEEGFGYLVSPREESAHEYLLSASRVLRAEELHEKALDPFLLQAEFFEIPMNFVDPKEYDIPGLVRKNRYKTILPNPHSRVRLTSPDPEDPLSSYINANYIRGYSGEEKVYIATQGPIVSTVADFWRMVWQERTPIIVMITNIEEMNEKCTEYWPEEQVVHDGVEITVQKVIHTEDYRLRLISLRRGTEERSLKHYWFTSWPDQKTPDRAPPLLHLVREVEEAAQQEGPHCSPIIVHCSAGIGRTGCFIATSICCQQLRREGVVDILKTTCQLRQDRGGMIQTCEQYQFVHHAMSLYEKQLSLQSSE
Experimental: Each sample was aliquoted out and 50 µL was transferred to wells of a 96-well microtiter plate containing 40 µL of 2× assay buffer with added reductant (GSH or DTT, 1 mM final concentration) and shaken for 0, 15, 30, or 60 additional minutes at ambient temperature. The reaction was started by addition of 10 µL of 10× pNPP substrate (stock, 20 mM, 2 mM in assay; total assay volume, 100 µL), and reaction progress was immediately monitored at 405 nm at a temperature of 27°C. The initial rate data collected were used to determine enzyme activity standardized to the DMSO controls.

SHP-2 = biological target: T2, SHP-2 (Homo sapiens, UniProt Q06124); experiment: Selectivity pNPP assay, full-length PTPs: SHP-2; format: biochemical; settings: full-length PTP, 10 nM, 500 µM pNPP
T2 construct: GST (N); made in house; host or cells: E. coli BL21 (DE3)
T2 sequence (Q06124 1-593): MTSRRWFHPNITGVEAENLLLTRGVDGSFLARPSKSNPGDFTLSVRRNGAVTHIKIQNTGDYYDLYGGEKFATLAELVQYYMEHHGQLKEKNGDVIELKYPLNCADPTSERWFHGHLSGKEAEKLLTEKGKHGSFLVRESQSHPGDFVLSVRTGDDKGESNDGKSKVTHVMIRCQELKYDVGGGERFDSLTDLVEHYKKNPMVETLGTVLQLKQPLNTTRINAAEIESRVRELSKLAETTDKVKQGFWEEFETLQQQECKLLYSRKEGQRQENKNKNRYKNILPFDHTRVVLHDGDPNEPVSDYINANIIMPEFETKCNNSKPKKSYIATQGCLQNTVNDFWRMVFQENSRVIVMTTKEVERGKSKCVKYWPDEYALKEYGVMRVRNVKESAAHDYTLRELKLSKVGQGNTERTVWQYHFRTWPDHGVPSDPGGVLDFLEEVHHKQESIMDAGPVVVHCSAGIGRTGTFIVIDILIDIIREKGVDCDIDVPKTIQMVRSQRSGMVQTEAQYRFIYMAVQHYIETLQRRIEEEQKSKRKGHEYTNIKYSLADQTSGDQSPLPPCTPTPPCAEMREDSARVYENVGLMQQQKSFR
Text: Constructs were transformed into BL21 (DE3) E. coli cells. Fusion proteins were purified on a glutathione sepharose column.

STEP [4] = biological target: T1, STEP; experiment: Dialysis of TC-2153-inhibited STEP; format: biochemical; settings: after 24 h of dialysis
Experimental: The samples were shaken at room temperature for 1 h to inhibit STEP. Each sample was then transferred to a separate Thermo Scientific Slide-A-Lyzer dialysis cassette with a 10,000 MW cutoff and 0.5–3.0 mL sample volume and was dialyzed into 1 L of 1× assay buffer over 24 h in a 4°C cold room. Aliquots of approximately 100 µL were removed from the dialysis cassette at 0, 4, and 24 h time points. Protein concentration was determined by reading absorbance at 280 nm compared to a standard curve for STEP. The samples were diluted to 100 nM in 100 µL of 1× assay buffer. […] The initial rate data collected were used to determine enzyme activity standardized to the DMSO control zero time point.

Chain of PTP-SL (Q15256 22-657): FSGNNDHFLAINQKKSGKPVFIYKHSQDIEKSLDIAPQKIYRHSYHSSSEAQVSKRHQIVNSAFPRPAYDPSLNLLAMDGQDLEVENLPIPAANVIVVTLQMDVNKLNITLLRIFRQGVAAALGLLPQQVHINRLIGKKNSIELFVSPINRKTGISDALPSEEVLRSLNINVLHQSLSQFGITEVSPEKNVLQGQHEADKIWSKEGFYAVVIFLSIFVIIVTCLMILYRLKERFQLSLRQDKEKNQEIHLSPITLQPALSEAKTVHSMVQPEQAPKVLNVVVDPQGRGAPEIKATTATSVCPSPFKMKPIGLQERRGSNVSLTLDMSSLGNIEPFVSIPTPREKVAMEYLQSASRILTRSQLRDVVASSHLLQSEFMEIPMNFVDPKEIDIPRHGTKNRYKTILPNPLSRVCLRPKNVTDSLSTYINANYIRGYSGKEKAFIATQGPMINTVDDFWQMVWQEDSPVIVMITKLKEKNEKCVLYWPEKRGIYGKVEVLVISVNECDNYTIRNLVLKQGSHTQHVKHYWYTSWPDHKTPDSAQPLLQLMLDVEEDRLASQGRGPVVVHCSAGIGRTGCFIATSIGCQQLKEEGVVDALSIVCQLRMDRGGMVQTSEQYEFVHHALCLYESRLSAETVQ

Q: With `Cl.Nc1cc(C(F)(F)F)cc2c1SSSSS2` [TC-2153, 8-(trifluoromethyl)-1,2,3,4,5-benzopentathiepin-6-amine hydrochloride] as the molecule, how does the “Aβ or phospho-tau levels” value (Aβ and phospho-tau) read?
A: no significant changes in Aβ or phospho-tau levels

Q: What about the “Aβ or phospho-tau levels” value (Aβ and phospho-tau; row) of the same molecule?
A: did not affect the Aβ and tau brain pathology

Q: What about the IC50 (PTP-SL) of the same molecule?
A: 0.2206 ± 0.0013 µM

Q: And the “pERK1/2 in cortex (P2 fraction)” value [1]?
A: 2.52±0.16

Q: What about the “pGluN2B in cortex (P2 fraction)” value [1] of the same molecule?
A: 1.66±0.28

Q: And the “pPyk2 in cortex (P2 fraction)” value [1]?
A: 1.80±0.30

Q: What about the “pERK1/2 and pPyk2 in hippocampus and frontal cortex of STEP KO mice” value ([2]; STEP KO mice) of the same molecule?
A: did not increase the Tyr phosphorylation of these substrates over baseline levels

Q: What about the “pERK1/2 and pPyk2 in frontal cortex and hippocampus” value ([2]; WT mice, 10 mg/kg i.p., 3 h) of the same molecule?
A: significant increase in pERK1/2 and pPyk2

Q: What about the “pERK1/2 and pPyk2 in cerebellum, spleen, kidney, pancreas (tissues without STEP)” value ([2]; mice, 10 mg/kg i.p., 3 h) of the same molecule?
A: not in the cerebellum or in all tissues tested outside the brain

Q: What about the “Recovery of STEP activity with DTT” value (STEP [3]; STEP 200 nM preincubated with 5 µM TC-2153, 1 mM DTT) of the same molecule?
A: 75%

Q: And the “Recovery of STEP activity with GSH” value (STEP [3]; STEP 200 nM preincubated with 5 µM TC-2153, 1 mM GSH)?
A: 29%

Q: What about the IC50 (SHP-2) of the same molecule?
A: 6.9 µM

Q: What about the “STEP activity after dialysis (reversibility)” value (STEP [4]) of the same molecule?
A: STEP remained inhibited
